Each structure is given as a SMILES string.

As usually defined, the Ki is a dissociation constant, usually derived from enzyme kinetics or from competition with a known ligand. A high value points to lower affinity. In general, IC50 refers to the point on the concentration scale where inhibition reaches its midpoint. Low readings indicate greater potency, high ones weaker potency.

The target in one experiment is Cannabinoid receptor 2 (Homo sapiens, UniProt P34972). In words: CB1 & 2 Binding Assays. Particulars: pH 7.4; 30 °C.
Chain of Cannabinoid receptor 2 (P34972 whole entry): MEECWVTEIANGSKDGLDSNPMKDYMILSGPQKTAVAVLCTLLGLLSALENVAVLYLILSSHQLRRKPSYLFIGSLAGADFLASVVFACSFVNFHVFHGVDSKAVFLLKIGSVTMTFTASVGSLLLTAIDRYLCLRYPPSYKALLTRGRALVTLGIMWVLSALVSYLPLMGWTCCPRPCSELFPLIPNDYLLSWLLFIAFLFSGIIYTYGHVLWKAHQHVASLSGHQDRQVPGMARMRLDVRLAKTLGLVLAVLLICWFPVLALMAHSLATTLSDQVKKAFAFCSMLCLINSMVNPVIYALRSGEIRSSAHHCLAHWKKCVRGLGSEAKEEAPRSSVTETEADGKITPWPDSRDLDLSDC
A further experiment deals with Cannabinoid receptor 1 (Homo sapiens, UniProt P21554). Briefly: CB1 & 2 Binding Assays. The conditions noted are these: pH 7.4; 30 °C.
Chain of Cannabinoid receptor 1 (P21554 whole entry): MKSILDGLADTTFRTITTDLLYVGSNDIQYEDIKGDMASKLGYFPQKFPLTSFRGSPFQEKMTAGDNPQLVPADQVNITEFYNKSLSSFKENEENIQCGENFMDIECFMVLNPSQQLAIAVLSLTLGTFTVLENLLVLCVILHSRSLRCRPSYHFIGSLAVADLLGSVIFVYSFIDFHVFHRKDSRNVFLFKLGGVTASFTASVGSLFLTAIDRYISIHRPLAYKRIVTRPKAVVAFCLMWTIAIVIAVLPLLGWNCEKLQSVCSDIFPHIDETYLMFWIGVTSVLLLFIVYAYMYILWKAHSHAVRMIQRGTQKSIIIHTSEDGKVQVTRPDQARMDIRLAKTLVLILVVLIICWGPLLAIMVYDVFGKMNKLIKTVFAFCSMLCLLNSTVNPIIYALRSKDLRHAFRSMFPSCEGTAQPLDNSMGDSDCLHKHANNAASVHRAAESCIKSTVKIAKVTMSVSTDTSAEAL
Experiment [1] has as its target T1, Fatty-acid amide hydrolase 1 (Homo sapiens, UniProt O00519).
T1 sequence (O00519 whole entry): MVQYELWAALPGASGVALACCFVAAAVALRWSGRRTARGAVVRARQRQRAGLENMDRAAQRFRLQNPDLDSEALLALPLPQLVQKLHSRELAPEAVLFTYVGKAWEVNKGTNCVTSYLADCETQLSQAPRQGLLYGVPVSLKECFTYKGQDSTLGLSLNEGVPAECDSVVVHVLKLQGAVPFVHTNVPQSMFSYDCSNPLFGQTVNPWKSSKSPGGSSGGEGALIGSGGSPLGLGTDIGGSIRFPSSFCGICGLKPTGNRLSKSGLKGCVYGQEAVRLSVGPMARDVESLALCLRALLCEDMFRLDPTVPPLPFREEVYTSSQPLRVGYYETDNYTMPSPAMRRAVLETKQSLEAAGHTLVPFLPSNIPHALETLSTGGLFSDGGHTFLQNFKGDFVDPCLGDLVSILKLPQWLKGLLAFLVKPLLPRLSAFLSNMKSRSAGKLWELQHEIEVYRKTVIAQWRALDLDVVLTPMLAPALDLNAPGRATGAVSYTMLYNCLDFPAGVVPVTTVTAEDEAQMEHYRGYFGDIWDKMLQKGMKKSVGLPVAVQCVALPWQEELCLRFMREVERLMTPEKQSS
In words: FAAH Activity Assay. Particulars: pH 7.6; 37 °C. As for the experimental part:
In this assay, 0.05 Units of hFAAH was pre-incubated for 30 min at 37 C with 2 uL of 11a, 11b, 11f at different concentrations (0.01 - 100 uM) or vehicin 196 uL of assay buffer (10 mM Tris-HCl, 1 mM EDTA (pH 7.6) and 0.1% w/v fatty acid-free BSA). 2 uL of AEA/[3H]-AEA mixture was added to the solution (final concenttion in assay was 10 nM) and incubated for 15 min at 37 C.

`CCCC(C)(C)c1ccc2c(c1)OC(C)(C)[C@@H]1CC=C(C)C[C@@H]21` had an inhibition constant (Ki) at Cannabinoid receptor 2 of 0.013 µM.

In the case of `C=C(C)CC[C@@H]1[C@H](C(=C)CC/C=C/C(=O)NCc2ccc(O)c(OC)c2)CC1(C)C` [(E)-6-((1R,2R)-3,3-Dimethyl-2-(3-methylbut-3-enyl)cyclobutyl)-N-(4-hydroxy-3-methoxybenzyl)hepta-2,6-dienamide (11e)], the Ki at Cannabinoid receptor 1 and on Cannabinoid receptor 2 was greater than 10 µM throughout. This molecule also yielded an IC50 in experiment [1] of 7.1 µM.

Molecule `C=C(C)CC[C@@H]1[C@H](C(=C)CC/C=C/C(=O)NCCC)CC1(C)C` [(E)-6-((1R,2R)-3,3-Dimethyl-2-(3-methylbut-3-enyl)cyclobutyl)-N-propylhepta-2,6-dienamide (11a)] gave a Ki at Cannabinoid receptor 2 of 1.01 µM. In experiment [1], the IC50 is 6.3 µM.

Molecule `C=C(C)CC[C@@H]1[C@H](C(=C)CC/C=C/C(=O)NCCCl)CC1(C)C` [(E)-N-(2-Chloroethyl)-6-((1R,2R)-3,3-dimethyl-2-(3-methylbut-3-enyl)cyclobutyl)hepta-2,6-dienamide (11c)] came in with an inhibitory constant (Ki) on Cannabinoid receptor 2 of 1.43 µM. This molecule showed an IC50 in experiment [1] greater than 10 µM.

In the case of `C=C(C)CC[C@@H]1[C@H](C(=C)CC/C=C/C(=O)NCCc2ccc(O)c(O)c2)CC1(C)C` [(E)-N-(3,4-Dihydroxyphenethyl)-6-((1R,2R)-3,3-dimethyl-2-(3-methylbut-3-enyl)cyclobutyl)hepta-2,6-dienamide (11f)], the Ki on Cannabinoid receptor 1 was greater than 10 µM; on Cannabinoid receptor 2, 6.5 µM. The IC50 in experiment [1] is greater than 10 µM.

The molecule `C=CCNC(=O)/C=C/CCC(=C)[C@@H]1CC(C)(C)[C@@H]1CCC(=C)C` [(E)-N-Allyl-6-((1R,2R)-3,3-dimethyl-2-(3-methylbut-3-enyl)cyclobutyl)hepta-2,6-dienamide (11b)] returned a Ki at Cannabinoid receptor 2 of 0.68 µM. The molecule further displayed an IC50 in experiment [1] of 2.7 µM.

As to `C=C1CC/C=C(\C)CC[C@@H]2[C@H]1CC2(C)C` [β-humulene], on Cannabinoid receptor 1, the Ki was greater than 10 µM. In experiment [1], this molecule had a concentration for half-maximal inhibition (IC50) greater than 10 µM.

The record behind these values is BindingDB's records for doi:10.1021/cb500177c (University of Bern, 2014).
